Data: publication PMC3629974 (Journal of nuclear medicine : official publication, Society …, 2011)

Legend:
CHO-PKR1 cells = test: Cell uptake, internalization and efflux of ^18F-PC-10; type: cell-based, Chinese hamster
[1] = Ex vivo biodistribution in CFA-treated mice; parameters: species or system C57BL/6 mice; settings: 2 h after injection
[2] = test system: CFA-induced inflamed paw (PKR1-expressing); test: Small-animal PET of CFA-induced inflammatory pain model; type: in vivo, C57BL/6 mice
human PKR1 = human PKR1 (Homo sapiens, UniProt Q8TCW9); test: Competition cell-binding assay with ^125I-MIT-1 on CHO-PKR1 cells; settings: PC-10 binding IC50 vs PC-7 functional IC50 (33 nM)
human PKR1, sequence (Q8TCW9 whole entry): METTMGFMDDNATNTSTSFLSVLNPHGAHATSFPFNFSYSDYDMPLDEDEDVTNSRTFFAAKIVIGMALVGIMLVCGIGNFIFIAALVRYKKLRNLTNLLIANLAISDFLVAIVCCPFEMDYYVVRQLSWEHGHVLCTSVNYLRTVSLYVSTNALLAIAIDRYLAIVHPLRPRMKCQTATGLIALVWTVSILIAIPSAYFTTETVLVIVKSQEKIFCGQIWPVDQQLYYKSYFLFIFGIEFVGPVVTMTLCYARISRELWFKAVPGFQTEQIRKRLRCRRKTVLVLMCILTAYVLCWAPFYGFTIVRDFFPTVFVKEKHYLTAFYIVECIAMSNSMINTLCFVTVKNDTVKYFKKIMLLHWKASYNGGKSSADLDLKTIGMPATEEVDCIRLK

Row | activity in blood [1] [%ID/g] | uptake in bone [1] [%ID/g] | uptake in kidneys [1] [%ID/g] | uptake in liver [1] [%ID/g] | uptake in salivary gland [1] [%ID/g] | uptake in control paw ([2]; PET, 2 h after injection) [%ID/g] | binding affinity to PKR1 lower than functional IC50 of PC-7 (human PKR1) [fold] | Compound | time at which cell uptake reached a plateau (CHO-PKR1 cells; 37°C) [h] | time at which internalization reached a plateau (CHO-PKR1 cells; 37°C, stable up to 2 h) [h] | part of observed uptake due to internalization (CHO-PKR1 cells; acid buffer pH 2.8 wash) | time after medium replacement at which half of the activity was unbound (efflux) (CHO-PKR1 cells; after 2 h loading) [min] | time at which efflux reached a plateau (CHO-PKR1 cells; after medium replacement) [h] | decrease of uptake in inflamed paw by blocking ([2]; 1 h after injection, coinjected with excess PC-7)
1 | 0.22 ± 0.05 | 0.69 ± 0.12 | 5.26 ± 1.06 | 3.80 ± 1.14 | 3.05 ± 1.10 | 0.13 ± 0.01 |  | COc1ccc(Cn2c(NCCNC(=N)NC(=O)c3ccc([18F])cc3)nc(=O)n(Cc3ccc(F)cc3)c2=O)cc1 [^18F-PC-10, N-(4-^18F-fluoro-benzoyl)-N′-{2-[5-(4-fluoro-benzyl)-1-(4-methoxy-benzyl)-4,6-dioxo-1,4,5,6-tetrahydro-[1,3,5]triazin-2-ylamino]-ethyl}-guanidine] | 0.5 | 0.5 | Approximately half | ≤ 15 | 1 | approximately 70%
2 |  |  |  |  |  |  | 3 | COc1ccc(Cn2c(NCCNC(=N)NC(=O)c3ccc(F)cc3)nc(=O)n(Cc3ccc(F)cc3)c2=O)cc1 [PC-10, N-(4-fluoro-benzoyl)-N′-{2-[5-(4-fluoro-benzyl)-1-(4-methoxy-benzyl)-4,6-dioxo-1,4,5,6-tetrahydro-[1,3,5]triazin-2-ylamino]-ethyl}-guanidine] |  |  |  |  |  | 
